We go through one molecule from patent publication US20110008463A1, “COMBINATIONS OF HYDROXYPYRION COMPOUNDS AND SILVER COMPOUNDS” (priority 2008, published 2011).

Structures are written as SMILES.

The test system of one experiment is Chaetomium globosum. As to the kind of experiment: Poison Plate Assay (fungi, Glucose Agar). Format: cell-based. Particulars: Chaetomium globosum ATCC6205, ppm total active ingredient, 27° C., growth evaluated after two weeks, label = % (I-e) + % nano-silver. As to the method: (§1) Test models: • Fungi: to each well of a 24-well microtiter plate, 1000 μl of Glucose Agar (GA: 10 g glucose, 1.5 g K2HPO4, 2 g KH2PO4, 1 g (NH4)2SO4, 0.5 g MgSO4 and 12.5 g agar in 1 liter deionised water) containing the appropriate combination of the test compounds in one of the concentrations of a dose series is added. The nutrient medium is inoculated with the test fungi by adding a spore/mycelium suspension (10 μl) or a small piece of agar from the margin of an actively growing colony and incubated under dark at 27° C. with 70% relative humidity. The growth of the fungi is evaluated after two weeks. • Glucose agar is used here instead of PDA (Potato Dextrose Agar), as an alternative, poorer medium for the fungi, in order to increase the chances of detecting activity in compounds whose mode of action might be circumvented by fungi on a […]). Moreover, a richer organic medium has more potential to complex and inactivate antibacterial silver ions (Lasater et al. 1999, Weissbuch et al. 2002). • Bacteria : to each well of a 24-well microtiter plate, 1000 μL Tryptose Agar (TA, 20 g bacto tryptose agar, 5 g sodium chloride, 1 g bacto dextrose and 15 g agar in l liter deionised water), containing the test compounds in one of the concentrations of a dose series is added. […] Growth is evaluated after five days. […]

In another experiment the test system is Ulocladium atrum. As to the kind of experiment: Poison Plate Assay (fungi, Glucose Agar). The experiment is classed as cell-based. Conditions: Ulocladium atrum IMI214699a, ppm total active ingredient, 27° C., growth evaluated after two weeks, label = % (I-e) + % nano-silver. As to the method: as §1

Regarding `Cc1cc(CC(C)CC(C)(C)C)n(O)c(=O)c1.NCCO` (centres unmarked) [100 + 0, piroctone olamine], the “MIC-values (minimum inhibitory concentration) in ppm” value with Chaetomium globosum and in the experiment on Ulocladium atrum was 3.16 ppm throughout.
